PMC11470957, “Principles of paralog-specific targeted protein degradation engaging the C-degron E3 KLHDC2” (Nature Communications, 2024)
“And” between values parts separate entries of the source, which are not always exact repeats. Identical values can stand only once. Like-named read-outs stand apart in the source and are kept apart here.

Biological target: BRD3 (Homo sapiens, UniProt Q15059)
Experiment: Western blot of BRD3 levels after cellular dosing

BRD3, sequence (Q15059 whole entry): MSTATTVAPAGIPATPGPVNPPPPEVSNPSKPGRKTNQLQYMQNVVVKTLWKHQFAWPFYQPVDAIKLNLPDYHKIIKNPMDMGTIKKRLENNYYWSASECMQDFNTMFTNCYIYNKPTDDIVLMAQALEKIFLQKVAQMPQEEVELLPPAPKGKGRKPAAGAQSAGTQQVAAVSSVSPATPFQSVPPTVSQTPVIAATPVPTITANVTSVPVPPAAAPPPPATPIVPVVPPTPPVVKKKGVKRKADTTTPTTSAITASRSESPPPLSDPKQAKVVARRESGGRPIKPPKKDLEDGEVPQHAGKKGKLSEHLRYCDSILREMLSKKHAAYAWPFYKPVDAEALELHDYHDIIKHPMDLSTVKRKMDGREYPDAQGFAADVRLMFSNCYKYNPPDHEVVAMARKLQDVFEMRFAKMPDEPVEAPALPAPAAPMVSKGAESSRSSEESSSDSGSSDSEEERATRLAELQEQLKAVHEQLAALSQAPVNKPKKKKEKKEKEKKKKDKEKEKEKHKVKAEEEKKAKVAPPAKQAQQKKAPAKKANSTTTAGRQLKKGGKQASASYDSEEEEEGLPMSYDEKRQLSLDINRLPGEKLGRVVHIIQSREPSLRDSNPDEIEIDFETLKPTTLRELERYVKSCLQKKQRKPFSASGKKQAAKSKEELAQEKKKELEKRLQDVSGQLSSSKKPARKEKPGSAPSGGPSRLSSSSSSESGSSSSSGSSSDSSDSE

Compound: COC(=O)CNC(=O)Cc1csc(-c2ccc3cccc(OCCN4CCN(C(=O)C[C@@H]5N=C(c6ccc(Cl)cc6)c6c(sc(C)c6C)-n6c(C)nnc65)CC4)c3c2)n1 [SJ46420]
- remaining activity at 1 µM (SK-BR-3, 4 h, read-out: BRD3 level relative to DMSO (100%), SKBR3, 1µM, 4hr, Fig S6g): 36 ± 6.9%
- remaining activity at 5 µM (SK-BR-3, 4 h, read-out: BRD3 level relative to DMSO (100%), SKBR3, 5µM, 4hr, Fig S6g): 13 ± 2.9%
- remaining activity at 5 µM (SK-BR-3, 4 h, read-out: BRD3 level relative to DMSO (100%), SKBR3, 5µM, 4hr, Fig S6j): 31 ± 5.6%
- remaining activity at 1 µM (SK-BR-3, 4 h, read-out: BRD3 level, Western blot quantification (DMSO = 100), Fig S6g, SKBR3 Time course, 1 uM, 4hr): 41.9%
- remaining activity at 5 µM (SK-BR-3, 4 h, read-out: BRD3 level, Western blot quantification (DMSO = 100), Fig S6g, SKBR3 Time course, 5 uM, 4hr): 15.1%
- remaining activity at 1 µM (SK-BR-3, 8 h, read-out: BRD3 level relative to DMSO (100%), SKBR3, 1µM, 8hr, Fig S6g): 32 ± 3.5%
- remaining activity at 5 µM (SK-BR-3, 8 h, read-out: BRD3 level relative to DMSO (100%), SKBR3, 5µM, 8hr, Fig S6g): 8.8 ± 2.6%
- remaining activity at 1 µM (SK-BR-3, 8 h, read-out: BRD3 level, Western blot quantification (DMSO = 100), Fig S6g, SKBR3 Time course, 1 uM, 8hr): 35%
- remaining activity at 5 µM (SK-BR-3, 8 h, read-out: BRD3 level, Western blot quantification (DMSO = 100), Fig S6g, SKBR3 Time course, 5 uM, 8hr): 10.6%
- remaining activity at 5 µM (SK-BR-3, read-out: BRD3 level, Western blot quantification (DMSO = 100), Fig S6i, SKBR3, 5uM): 27.2%
- potency relative to K2-B4-3e (more potent) (SKBR3 4 h, U2OS 8 h): ~ 3 fold and 2-3 fold
- selectivity of BRD3 over BRD4 degradation (SKBR3, 8 hr): ~ 5 fold
- selectivity of BRD3 over BRD4 degradation (SKBR3, 24 hr): ~ 1.5 fold
- reduction of the levels of BRD3 (SKBR3, within two hours): ~ 70%
- BRD3 Dmax (U2OS KO/Rescue, 24 h dose): ~ 100%
- selectivity for BRD3 over BRD2 and BRD4 (DC50) (U2OS KO/rescue): ~ 2.5 fold
- time of maximal degradation (U2OS cells): 8 h
- remaining activity at 5 µM (U2OS, 2 h, read-out: BRD3 level relative to DMSO (100%), U2OS, 5µM, 2hr, Fig S6h): 93 ± 9.8%
- remaining activity at 5 µM (U2OS, 2 h, read-out: BRD3 level, Western blot quantification (DMSO = 100), Fig S6h, U2OS Time course, 5uM, 2hr): 91.4%
- remaining activity at 5 µM (U2OS, 4 h, read-out: BRD3 level relative to DMSO (100%), U2OS, 5µM, 4hr, Fig S6h): 68 ± 9.8%
- remaining activity at 5 µM (U2OS, 4 h, read-out: BRD3 level, Western blot quantification (DMSO = 100), Fig S6h, U2OS Time course, 5uM, 4hr): 71.3%
- remaining activity at 5 µM (U2OS, 8 h, read-out: BRD3 level relative to DMSO (100%), U2OS, 5µM, 8hr, Fig S6i): 41 ± 5.4%
- remaining activity at 5 µM (U2OS, 8 h, read-out: BRD3 level relative to DMSO (100%), U2OS, 5µM, 8hr, Fig S6h): 28 ± 9.8%
- remaining activity at 5 µM (U2OS, 8 h, read-out: BRD3 level, Western blot quantification (DMSO = 100), Fig S6h, U2OS Time course, 5uM, 8hr): 31.8%
- remaining activity at 5 µM (U2OS, 24 h, read-out: BRD3 level relative to DMSO (100%), U2OS DC2KO (KLHDC2 knockout), 5µM, 24 h, Fig 6b): 100 ± 6.8%
- remaining activity at 0.16 µM (U2OS, 24 h, read-out: BRD3 level relative to DMSO (100%), U2OS KO/Rescue, 0.16µM, 24 h, Fig S6d): 85 ± 13%
- remaining activity at 0.31 µM (U2OS, 24 h, read-out: BRD3 level relative to DMSO (100%), U2OS KO/Rescue, 0.31µM, 24 h, Fig S6d): 65 ± 14%
- remaining activity at 0.63 µM (U2OS, 24 h, read-out: BRD3 level relative to DMSO (100%), U2OS KO/Rescue, 0.63µM, 24 h, Fig S6d): 39 ± 8.5%
- remaining activity at 1 µM (U2OS, 24 h, read-out: BRD3 level relative to DMSO (100%), U2OS KO/Rescue, 1µM + co-dosing 1µM MLN4924, 24 h, Fig 6d): 120 ± 1.5%
- remaining activity at 1 µM (U2OS, 24 h, read-out: BRD3 level relative to DMSO (100%), U2OS KO/Rescue, 1µM, 24 h, Fig 6c): 45 ± 3.6%
- remaining activity at 1 µM (U2OS, 24 h, read-out: BRD3 level relative to DMSO (100%), U2OS KO/Rescue, 1µM, 24 h, Fig 6d): 25 ± 8.2%
- remaining activity at 1.3 µM (U2OS, 24 h, read-out: BRD3 level relative to DMSO (100%), U2OS KO/Rescue, 1.3µM, 24 h, Fig S6d): 12 ± 1.8%
- remaining activity at 2.5 µM (U2OS, 24 h, read-out: BRD3 level relative to DMSO (100%), U2OS KO/Rescue, 2.5µM, 24 h, Fig S6d): 0.77 ± 0.16%
- remaining activity at 5 µM (U2OS, 24 h, read-out: BRD3 level relative to DMSO (100%), U2OS KO/Rescue, 5µM, 24 h, Fig S6d): 0.34 ± 0.11%
- remaining activity at 5 µM (U2OS, 24 h, read-out: BRD3 level relative to DMSO (100%), U2OS, 5µM, 24 h, Fig 6b): 30.9 ± 4.1%
- remaining activity at 5 µM (U2OS, 24 h, read-out: BRD3 level relative to DMSO (100%), U2OS, 5µM, 24hr, Fig S6h): 41 ± 9.8%
- remaining activity at 5 µM (U2OS, 24 h, read-out: BRD3 level, Western blot quantification (DMSO = 100), Fig S6h, U2OS Time course, 5uM, 24hr): 43.5%
- selectivity of BRD3 over BRD4 degradation (U2OS, 24 hr): ~ 1.4 fold
- remaining activity at 1.59176 µM (U2OS, read-out: BRD3 (DMSO = 100), U2OS KO/Rescue cells, Log SJ46420 (uM) 1.59176, Rep1, Rep2): 95%
- remaining activity at 2.49485 µM (U2OS, read-out: BRD3 (DMSO = 100), U2OS KO/Rescue cells, Log SJ46420 (uM) 2.49485, Rep1, Rep2): 47.6%
- remaining activity at 2.79588 µM (U2OS, read-out: BRD3 (DMSO = 100), U2OS KO/Rescue cells, Log SJ46420 (uM) 2.79588, Rep1, Rep2): 11.4%
- remaining activity at 3.09691 µM (U2OS, read-out: BRD3 (DMSO = 100), U2OS KO/Rescue cells, Log SJ46420 (uM) 3.09691, Rep1, Rep2): 0.66%
- remaining activity at 3.39794 µM (U2OS, read-out: BRD3 (DMSO = 100), U2OS KO/Rescue cells, Log SJ46420 (uM) 3.39794, Rep1, Rep2): 0.34%
- remaining activity at 3.69897 µM (U2OS, read-out: BRD3 (DMSO = 100), U2OS KO/Rescue cells, Log SJ46420 (uM) 3.69897, Rep1, Rep2): 0.161%
- Dmax (U2OS, read-out: BRD3 Dmax, U2OS KO/Rescue, 24 h dose): 99.9%
- remaining activity at 5 µM (U2OS, read-out: BRD3 level, Western blot quantification (DMSO = 100), Fig 6b, U2OS, 5 uM): 33.9%
- remaining activity at 5 µM (U2OS, read-out: BRD3 level, Western blot quantification (DMSO = 100), Fig S6i, U2OS, 5uM): 52.9%
- remaining activity at 0.156 µM (U2OS, read-out: BRD3 level, Western blot quantification (DMSO = 100), Fig S6d, U2OS KO/rescue Dose Response, 0.156 uM): 108%
- remaining activity at 0.313 µM (U2OS, read-out: BRD3 level, Western blot quantification (DMSO = 100), Fig S6d, U2OS KO/rescue Dose Response, 0.313 uM): 70.7%
- remaining activity at 0.625 µM (U2OS, read-out: BRD3 level, Western blot quantification (DMSO = 100), Fig S6d, U2OS KO/rescue Dose Response, 0.625 uM): 29.3%
- remaining activity at 1.25 µM (U2OS, read-out: BRD3 level, Western blot quantification (DMSO = 100), Fig S6d, U2OS KO/rescue Dose Response, 1.25 uM): 11.3%
- remaining activity at 2.5 µM (U2OS, read-out: BRD3 level, Western blot quantification (DMSO = 100), Fig S6d, U2OS KO/rescue Dose Response, 2.5 uM): 5.44%
- stability in cells (from time-course of BRD3 levels between 8 h and 24 h): relatively unstable
- DC50 (read-out: BRD3 DC50, 22Rv1, 24 h dose): 458 nM
